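Five concentrations, 48 hours, 96-well plates. The concentration for full growth arrest is given as TGI.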
How the values were obtained:
Experiment in all cases: NCI tumour cell line growth inhibition, 48 h
SK-MEL-5 melanoma = test system: SK-MEL-5 melanoma
A549 NSCLC = test system: A549 NSCLC
SK-MEL-28 melanoma = test system: SK-MEL-28 melanoma
MDA-N = test system: MDA-N
HS 578T breast = test system: HS 578T breast
DU-145 prostate = test system: DU-145 prostate
RXF 393 renal = test system: RXF 393 renal
A498 renal = test system: A498 renal
NCI-H23 lung = test system: NCI-H23 lung
MCF7 breast = test system: MCF7 breast
NCI-H522 lung = test system: NCI-H522 lung
CAKI-1 renal = test system: CAKI-1 renal
LOX IMVI melanoma = test system: LOX IMVI melanoma
KM12 colon = test system: KM12 colon
HCT-15 colon = test system: HCT-15 colon
HL-60(TB) leukemia = test system: HL-60(TB) leukemia
UO-31 renal = test system: UO-31 renal
HCC-2998 colon = test system: HCC-2998 colon
IGROV1 ovarian = test system: IGROV1 ovarian
RPMI-8226 leukemia = test system: RPMI-8226 leukemia
PC-3 prostate = test system: PC-3 prostate
HOP-62 NSCLC = test system: HOP-62 NSCLC
SF-268 CNS = test system: SF-268 CNS
MDA-MB-435 = test system: MDA-MB-435
OVCAR-5 ovarian = test system: OVCAR-5 ovarian
ACHN renal = test system: ACHN renal
EKVX NSCLC = test system: EKVX NSCLC
SN12C renal = test system: SN12C renal
UACC-62 melanoma = test system: UACC-62 melanoma
SK-MEL-2 melanoma = test system: SK-MEL-2 melanoma
SF-539 CNS = test system: SF-539 CNS
NCI/ADR-RES ovarian = test system: NCI/ADR-RES ovarian
MOLT-4 leukemia = test system: MOLT-4 leukemia
786-0 renal = test system: 786-0 renal
SR leukemia = test system: SR leukemia
SNB-19 CNS = test system: SNB-19 CNS
OVCAR-8 ovarian = test system: OVCAR-8 ovarian
SW-620 colon = test system: SW-620 colon
NCI-H226 lung = test system: NCI-H226 lung
TK-10 renal = test system: TK-10 renal
HT29 colon = test system: HT29 colon
M14 melanoma = test system: M14 melanoma
T-47D breast = test system: T-47D breast
MDA-MB-231 breast = test system: MDA-MB-231 breast
UACC-257 melanoma = test system: UACC-257 melanoma
COLO 205 colon = test system: COLO 205 colon
HCT-116 colon = test system: HCT-116 colon
HOP-92 NSCLC = test system: HOP-92 NSCLC
SNB-75 CNS = test system: SNB-75 CNS
OVCAR-3 ovarian = test system: OVCAR-3 ovarian
BT-549 breast = test system: BT-549 breast
SF-295 CNS = test system: SF-295 CNS
NCI-H460 lung = test system: NCI-H460 lung
OVCAR-4 ovarian = test system: OVCAR-4 ovarian
U251 CNS = test system: U251 CNS
SK-OV-3 ovarian = test system: SK-OV-3 ovarian
K-562 leukemia = test system: K-562 leukemia
MALME-3M melanoma = test system: MALME-3M melanoma

Measured: TGI

CCOC(=O)c1nc2cc(C(F)(F)F)ccc2nc1Nc1ccc(OC)cc1
not listed: NCI-H460 lung | OVCAR-4 ovarian | U251 CNS | SK-OV-3 ovarian | K-562 leukemia | MALME-3M melanoma
> 100 µM: all other assays above

O=C(O)c1cccc(C(=O)O)c1S(=O)Cc1ccccc1 (centres undefined)
not listed: MOLT-4 leukemia
> 100 µM: all other assays above
